Several values for one entry are separate records, joined by “and”; a condition that tells them apart may be missing. Equal values may be shown once. Toxic doses and inconclusive results are not listed.

Drawing on PubChem BioAssay AID256 (DTP/NCI, 2004), this text covers T/C for 20 compounds.

The subject of this assay is CD2F1 mice, L1210 leukemia ip, survival T/C. The assay can be described thus: NCI In Vivo Anticancer Drug Screen. Data for tumor model L1210 Leukemia (intraperitoneal) in CD2F1 (CDF1) mice. Conditions: higher = longer survival. The procedure, abridged: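 Antitumor effect is scored in animals hosting a serially transplanted tumor. Values compare compound-dosed animals against vehicle-only controls as a simple quotient.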

Setting [1] is: endpoint: mean survival time, dose: 100.0 mg/kg/injection, schedule: Q01DX001 (ip), vehicle: saline with Tween-80.
Where [2] appears, read: endpoint: mean survival time, dose: 100.0 mg/kg/injection, schedule: Q01DX009 (ip), vehicle: saline with Tween-80.
[3] abbreviates: endpoint: mean survival time, dose: 200.0 mg/kg/injection, schedule: Q01DX001 (ip), vehicle: saline with Tween-80.
The mark [4] stands for this setting: endpoint: mean survival time, dose: 200.0 mg/kg/injection, schedule: Q01DX009 (ip), vehicle: saline with Tween-80.
The mark [5] stands for this setting: endpoint: mean survival time, dose: 400.0 mg/kg/injection, schedule: Q01DX009 (ip), vehicle: saline with Tween-80.
Where [6] appears, read: endpoint: mean survival time, dose: 100.0 mg/kg/injection, schedule: Q04DX003 (ip), vehicle: saline with Tween-80.
[7] abbreviates: endpoint: mean survival time, dose: 200.0 mg/kg/injection, schedule: Q04DX003 (ip), vehicle: saline with Tween-80.
The mark [8] stands for this setting: endpoint: mean survival time, dose: 400.0 mg/kg/injection, schedule: Q04DX003 (ip), vehicle: saline with Tween-80.
Where [9] appears, read: endpoint: mean survival time, dose: 100.0 mg/kg/injection, schedule: Q01DX001 (ip), vehicle: saline.
Where [10] appears, read: endpoint: mean survival time, dose: 200.0 mg/kg/injection, schedule: Q01DX001 (ip), vehicle: saline.
Setting [11] is: endpoint: mean survival time, dose: 400.0 mg/kg/injection, schedule: Q01DX001 (ip), vehicle: saline.

For `CC(=O)c1ccc([NH-])c([NH-])c1.[Cl][Pt+2][Cl]`, the T/C is 102 % of control (endpoint: mean survival time, dose: 2.5 mg/kg/injection, schedule: Q01DX009 (ip), vehicle: distilled water + Tween-80); 104 % of control (endpoint: mean survival time, dose: 5.0 mg/kg/injection, schedule: Q01DX009 (ip), vehicle: distilled water + Tween-80); 109 % of control and 112 % of control (endpoint: mean survival time, dose: 10.0 mg/kg/injection, schedule: Q01DX009 (ip), vehicle: distilled water + Tween-80); 114 % of control (endpoint: mean survival time, dose: 20.0 mg/kg/injection, schedule: Q01DX009 (ip), vehicle: distilled water + Tween-80).
In the case of `CC1(C)CC(=O)C=C(N2CCC(CCCC3CCN(C4=CC(=O)CC(C)(C)C4)CC3)CC2)C1`, the T/C is 102 % of control (endpoint: mean survival time, dose: 50.0 mg/kg/injection, schedule: Q01DX009 (ip), vehicle: saline with Tween-80); 100 % of control under setting [1]; 95 % of control under setting [2]; 93 % of control under setting [3].
With `COc1cc(-c2ccc3cc(OC)c(OC)c(OC)c3c2)cc(OC)c1OC`, the T/C under setting [2] is 96 % of control, the T/C under setting [4] was 98 % of control and the T/C under setting [5] was 96 % of control.
In the case of `COC(=O)CSc1n[nH]c(=O)[nH]c1=O`, the T/C is 97 % of control (endpoint: mean survival time, dose: 12.5 mg/kg/injection, schedule: Q01DX005 (ip), vehicle: distilled water + Tween-80); 100 % of control (endpoint: mean survival time, dose: 25.0 mg/kg/injection, schedule: Q01DX005 (ip), vehicle: distilled water + Tween-80); 103 % of control (endpoint: mean survival time, dose: 50.0 mg/kg/injection, schedule: Q01DX005 (ip), vehicle: distilled water + Tween-80); 94 % of control (endpoint: mean survival time, dose: 100.0 mg/kg/injection, schedule: Q01DX005 (ip), vehicle: distilled water + Tween-80); 92 % of control (endpoint: mean survival time, dose: 200.0 mg/kg/injection, schedule: Q01DX005 (ip), vehicle: distilled water + Tween-80).
In the case of `CC(=O)CSc1ncnc2nc[nH]c12`, the T/C reads like this: (endpoint: mean survival time, dose: 62.5 mg/kg/injection, schedule: Q01DX015 (ip), vehicle: saline) 118 % of control; (endpoint: mean survival time, dose: 250.0 mg/kg/injection, schedule: Q01DX015 (ip), vehicle: saline) 122 % of control; (endpoint: mean survival time, dose: 1000.0 mg/kg/injection, schedule: Q01DX015 (ip), vehicle: saline) 150 % of control.
Consider `COc1cc(N=CNc2cc(OC)n[n+]([O-])c2)c[n+]([O-])n1`, for which the T/C reads like this: (endpoint: mean survival time, dose: 12.5 mg/kg/injection, schedule: Q04DX002 (ip), vehicle: saline with Tween-80) 111 % of control; (endpoint: mean survival time, dose: 25.0 mg/kg/injection, schedule: Q04DX002 (ip), vehicle: saline with Tween-80) 86 % of control; (endpoint: mean survival time, dose: 50.0 mg/kg/injection, schedule: Q04DX002 (ip), vehicle: saline with Tween-80) 101 % of control.
Take `O=C(C=C(C(F)(F)F)C(F)(F)F)c1cccc(S(=O)(=O)F)c1`: the T/C under setting [1] is 107 % of control.
For `CC(=O)COc1cccc(C)c1`, the T/C was 100 % of control under setting [6], 103 % of control under setting [7] and 93 % of control under setting [8].
With `Nc1ccc(S(=O)(=O)c2ccc(N3CCOCC3)c(N)c2)cc1`, the T/C reads like this: (endpoint: mean survival time, dose: 100.0 mg/kg/injection, schedule: Q04DX002 (ip), vehicle: saline with Tween-80) 105 % of control; (endpoint: mean survival time, dose: 200.0 mg/kg/injection, schedule: Q04DX002 (ip), vehicle: saline with Tween-80) 94 % of control; (endpoint: mean survival time, dose: 400.0 mg/kg/injection, schedule: Q04DX002 (ip), vehicle: saline with Tween-80) 97 % of control.
`Cc1cccc(Cl)c1OCC1CO1` (centres undefined): the T/C by setting is: under setting [9], 110 % of control; under setting [10], 110 % of control; under setting [11], 110 % of control.
As for `CCOC(=O)Nc1n[nH]c(=S)[nH]c1=O`, the T/C is 96 % of control (endpoint: mean survival time, dose: 100.0 mg/kg/injection, schedule: Q01DX001 (ip), vehicle: carboxymethylcellulose (CMC)); 100 % of control (endpoint: mean survival time, dose: 200.0 mg/kg/injection, schedule: Q01DX001 (ip), vehicle: carboxymethylcellulose (CMC)); 96 % of control (endpoint: mean survival time, dose: 400.0 mg/kg/injection, schedule: Q01DX001 (ip), vehicle: carboxymethylcellulose (CMC)).
As for `COc1ccccc1F`, the T/C is 100 % of control (endpoint: mean survival time, dose: 10.0 mg/kg/injection, schedule: Q01DX009 (ip), vehicle: saline with Tween-80); 102 % of control (endpoint: mean survival time, dose: 20.0 mg/kg/injection, schedule: Q01DX009 (ip), vehicle: saline with Tween-80); 102 % of control (endpoint: mean survival time, dose: 40.0 mg/kg/injection, schedule: Q01DX009 (ip), vehicle: saline with Tween-80).
As for `COC1OCC(OS(C)(=O)=O)C(OS(C)(=O)=O)C1OS(C)(=O)=O` (centres undefined), the T/C was 96 % of control under setting [1]; 95 % of control and 100 % of control under setting [2]; 97 % of control under setting [3]; 96 % of control and 94 % of control under setting [4]; 100 % of control (endpoint: mean survival time, dose: 400.0 mg/kg/injection, schedule: Q01DX001 (ip), vehicle: saline with Tween-80); 93 % of control and 96 % of control under setting [5].
Consider `COc1ccc(CC2C(=O)NC(C)C(=O)N(C)C3Cc4ccc(cc4)Oc4cc(ccc4O)CC(C(=O)NC(C)C(=O)NC(C)C(=O)N2C)N(C)C3=O)cc1` (centres undefined), for which the T/C is, setting by setting: (endpoint: mean survival time, dose: 1.0 mg/kg/injection, schedule: Q01DX009 (ip), vehicle: saline with Tween-80) 112 % of control; (endpoint: mean survival time, dose: 2.0 mg/kg/injection, schedule: Q01DX009 (ip), vehicle: saline with Tween-80) 112 % of control; (endpoint: mean survival time, dose: 4.0 mg/kg/injection, schedule: Q01DX009 (ip), vehicle: saline with Tween-80) 116 % of control; (endpoint: mean survival time, dose: 16.0 mg/kg/injection, schedule: Q01DX009 (ip), vehicle: saline with Tween-80) 122 % of control; (endpoint: median survival time, dose: 2.0 mg/kg/injection, schedule: Q01DX009 (ip), vehicle: saline with Tween-80) 122 % of control; (endpoint: median survival time, dose: 4.0 mg/kg/injection, schedule: Q01DX009 (ip), vehicle: saline with Tween-80) 124 % of control. The T/C (endpoint: median survival time, dose: 16.0 mg/kg/injection, schedule: Q01DX009 (ip), vehicle: saline with Tween-80) was 111 % of control.
On to `Cc1cn(C2CC(O)C(CO)O2)c(=O)nc1N1CCCCCCC1` (centres undefined), for which the T/C is 102 % of control (endpoint: median survival time, dose: 12.5 mg/kg/injection, schedule: Q01DX005 (ip), vehicle: water); 102 % of control (endpoint: median survival time, dose: 25.0 mg/kg/injection, schedule: Q01DX005 (ip), vehicle: water); 102 % of control (endpoint: median survival time, dose: 50.0 mg/kg/injection, schedule: Q01DX005 (ip), vehicle: water); 102 % of control (endpoint: median survival time, dose: 100.0 mg/kg/injection, schedule: Q01DX005 (ip), vehicle: water); 103 % of control (endpoint: median survival time, dose: 200.0 mg/kg/injection, schedule: Q01DX005 (ip), vehicle: water).
Consider `CCN(CC)C(=O)N1CC2CCC(C1)N2C`, for which, for the setting “endpoint: mean survival time, dose: 100.0 mg/kg/injection, schedule: Q04DX003 (ip), vehicle: saline”, the T/C is 100 % of control.
For `CCOCCNc1ccc(S(=O)(=O)c2ccc(N)cc2)cc1N`, the T/C by setting is: (endpoint: mean survival time, dose: 100.0 mg/kg/injection, schedule: Q01DX009 (ip), vehicle: saline) 103 % of control; (endpoint: mean survival time, dose: 200.0 mg/kg/injection, schedule: Q01DX009 (ip), vehicle: saline) 92 % of control; (endpoint: mean survival time, dose: 400.0 mg/kg/injection, schedule: Q01DX009 (ip), vehicle: saline) 92 % of control.
As for `CCCCCCC(C)=O`, the T/C under setting [6] was 98 % of control, the T/C under setting [7] was 96 % of control and the T/C under setting [8] is 91 % of control.
On to `CCOCc1cc([N+](=O)[O-])cc([N+](=O)[O-])c1O`, for which the T/C (endpoint: mean survival time, dose: 12.5 mg/kg/injection, schedule: Q04DX003 (ip), vehicle: saline with Tween-80) was 98 % of control; the T/C (endpoint: mean survival time, dose: 25.0 mg/kg/injection, schedule: Q04DX003 (ip), vehicle: saline with Tween-80) was 98 % of control; the T/C (endpoint: mean survival time, dose: 50.0 mg/kg/injection, schedule: Q04DX003 (ip), vehicle: saline with Tween-80) is 100 % of control.
Regarding `Cc1cc(-c2ccccc2)c2c(C#N)cn(-c3ccccc3)c2n1`, the T/C under setting [9] is 87 % of control, the T/C under setting [10] was 92 % of control and the T/C under setting [11] was 92 % of control.
